{
  "source": "patent US20240091169A1",
  "about": "“POL[…] FOR TREATING INFLAMMATORY DISEASES” (UNIVERSITY OF SOUTH CAROLINA, priority 2022, published 2024)",
  "key": {"[1]": {"test_system": "AOM/DSS-induced CRC", "assay": "AOM/DSS mouse model of colorectal cancer (CRC)", "assay_type": "in vivo, C57BL/6 mice"}, "[2]": {"test_system": "bone marrow derived macrophages (BMDMs)", "assay": "CCK-8 cell viability of BMDMs", "assay_type": "cell-based, C57BL/6 mice", "settings": "Mus musculus, BMDM, 24 hr, read-out: IC50, cell survival of BMDMs", "procedure": "Bone marrow-derived macrophages (BMDMs) were isolated from healthy 10-14-week-old C57BL/6 male mice. Briefly, mice were euthanized by isoflurane overdose. Femurs were cleared of muscle and debris. The epiphyses of the femurs were cut and placed knee-down and spun down in a 1.5 mL tube. Bone marrow was collected and resuspended in complete DMEM (cDMEM; 10% FBS, 1% penicillin/streptomycin) and passed through two 100 μm strainers. Cells were plated on an untreated 10 cm dish in cDMEM and allowed to incubate at 37° C. for 4 hr. Adherent/mature monocytes and dendritic cells were discarded, while floating/immature monocytes were collected. Cells were subjected to RBC lysis and resuspended in bone marrow maintenance media (BMMM; 20% L929-conditioned media in cDMEM). Cells were then plated on surface-treated 6-well plates at a 250 k cells/well seeding density. On day 3, fresh BMMM was added. On day 5, media was aspirated and fresh BMMM was added. […] Cells were stained and analyzed for macrophages via flow cytometry as described above with the addition of analyzing macrophage phenotypes. From the CD11b^+CD68^+ macrophage population, macrophage phenotypes were determined based on CD206 and CD11c expression. […] All cells were measured using a FACS Aria II (BD) and analyzed using FlowJo (BD Biosciences). […]"}, "[3]": {"settings": "females, males, and sexes combined, vs VEH, p≤0.05"}, "[4]": {"settings": "proximal colon (tumors intact) RT-qPCR, vs VEH, p≤0.05"}, "[5]": {"settings": "proximal colon RT-qPCR, vs VEH, p≤0.05"}, "[6]": {"settings": "proximal colon qRT-PCR, vs VEH, p≤0.05"}, "[7]": {"settings": "removed tumors RT-PCR, vs VEH, p≤0.05"}},
  "data": [
    {"compound": "C=CC(O)C#CC#CC/C=C\\CCCCCCC", "note": "(stereo in doubt) [PA, 3(R)-(9Z)-heptadeca-1,9-dien-4,6-diyn-3-ol]", "values": [
      {"measurement": "survival", "setting": "[1]; 2.5 mg/kg p.o. 3x/week, 12 weeks, vs AOM/DSS+VEH, FIG. 1B", "value": "appears to improve survival, although non-significant"},
      {"measurement": "goblet cells per crypt", "setting": "[1]; Alcian Blue, distal colon, no difference between CF and PA", "value": "completely rescued"},
      {"measurement": "Foxp3 gene expression in tumors", "setting": "[1]; RT-qPCR, vs VEH, p≤0.05", "value": "decrease"},
      {"measurement": "colonoscopy score: focal lesions", "setting": "[1]; after 12 weeks, vs VEH", "value": "no significant difference"},
      {"measurement": "colonoscopy score: perianal findings", "setting": "[1]; after 12 weeks, vs VEH, p=0.08", "value": "no significant difference"},
      {"measurement": "colonoscopy score: inflammation", "setting": "[1]; after 12 weeks, vs VEH, p≤0.05", "value": "significant reductions"},
      {"measurement": "colonoscopy score: intestinal bleeding", "setting": "[1]; after 12 weeks, vs VEH, p≤0.05", "value": "significant reductions"},
      {"measurement": "colonoscopy score: transparency of the colonic wall", "setting": "[1]; after 12 weeks, vs VEH, p≤0.05", "value": "significant reduction (i.e., improvement)"},
      {"measurement": "colonoscopy tumor score", "setting": "[1]; after 12 weeks, vs VEH, p≤0.05", "value": "significantly reduced"},
      {"measurement": "abundance of CD11b+CD68+ macrophages in colonic lamina propria", "setting": "[1]; colons with tumors intact, flow cytometry, vs VEH, p≤0.05", "value": "significantly decreased"},
      {"measurement": "submucosal invasion and destruction of the crypts (H&E)", "setting": "[1]; distal colon, vs VEH", "value": "did not appear as severe"},
      {"measurement": "large tumors (>2 mm)", "setting": "[1]; females and sexes combined, vs VEH, p≤0.05", "value": "significant reduction"},
      {"measurement": "number of medium sized tumors (1-2 mm)", "setting": "[1]; [3]", "value": "significantly reduced"},
      {"measurement": "total number of tumors", "setting": "[1]; [3]", "value": "significantly reduced"},
      {"measurement": "abundance of neutrophils in the colon", "setting": "[1]; flow cytometry, n=2-3/group, statistics not performed", "value": "appeared to protect against the increased abundance"},
      {"measurement": "relative abundance of macrophages in colons following tumor removal", "setting": "[1]; flow cytometry, increase with VEH vs CF, p≤0.05", "value": "ameliorated"},
      {"measurement": "F4/80 immunofluorescence staining in colonic tumors", "setting": "[1]; pan macrophage marker, n=3/group", "value": "reduction in macrophages"},
      {"measurement": "CD68 gene expression", "setting": "[1]; [4]", "value": "significantly suppressed"},
      {"measurement": "MSR-1 gene expression", "setting": "[1]; [4]", "value": "significantly suppressed"},
      {"measurement": "mannose receptor C type 1 (Mrc1) gene expression", "setting": "[1]; [4]", "value": "significantly suppressed"},
      {"measurement": "IL-1β gene expression", "setting": "[1]; [5]", "value": "significant downregulation"},
      {"measurement": "IL-6 gene expression", "setting": "[1]; [5]", "value": "significant downregulation"},
      {"measurement": "IL-10 gene expression", "setting": "[1]; [5]", "value": "significantly downregulated"},
      {"measurement": "IL-13 gene expression", "setting": "[1]; [5]", "value": "significantly downregulated"},
      {"measurement": "TGF-β1 gene expression", "setting": "[1]; [5]", "value": "significantly downregulated"},
      {"measurement": "neutrophil marker Ly6g gene expression", "setting": "[1]; [5]", "value": "significantly downregulated"},
      {"measurement": "Muc1 gene expression", "setting": "[1]; proximal colon qRT-PCR, vs VEH, p=0.08", "value": "slightly but non-significantly reduced"},
      {"measurement": "Muc2 gene expression", "setting": "[1]; [6]", "value": "significantly increased"},
      {"measurement": "occludin (OCLN) gene expression", "setting": "[1]; [6]", "value": "upregulated"},
      {"measurement": "tight junction protein 3 (TJP3) gene expression", "setting": "[1]; [6]", "value": "upregulated"},
      {"measurement": "gene expression of pro-apoptotic marker Bax in colonic tumors", "setting": "[1]; qRT-PCR, vs VEH, p=0.09", "value": "increased, although non-significant"},
      {"measurement": "TGF-01 gene expression in tumors", "setting": "[1]; removed tumors RT-PCR, vs VEH, p=0.08", "value": "suppressed"},
      {"measurement": "CD68 gene expression in tumors", "setting": "[1]; [7]", "value": "significantly suppressed"},
      {"measurement": "IL-6 gene expression in tumors", "setting": "[1]; [7]", "value": "suppressed"},
      {"measurement": "IL-13 gene expression in tumors", "setting": "[1]; [7]", "value": "suppressed"},
      {"measurement": "small tumors (≤1 mm)", "setting": "[1]; sexes combined, reduction observed, p=0.08", "value": "did not reach statistical significance"},
      {"measurement": "colonic TCRβ+FoxP3+ T-regs", "setting": "[1]; tumor-removed colons, flow cytometry, between VEH and PA", "value": "no difference"},
      {"measurement": "percentage of Ki67 positive cells in colonic tumors", "setting": "[1]; vs VEH, p≤0.05", "value": "significant decreased"},
      {"measurement": "percentage of apoptotic cells (TUNEL) in colonic tumors", "setting": "[1]; vs VEH, p≤0.05", "value": "significant increase"},
      {"measurement": "overall symptom score (bodyweight loss, stool consistency, rectal bleeding)", "setting": "[1]; weeks 1-3, 5-7 and 10-12, vs VEH, FIG. 1C", "value": "significantly suppressed"},
      {"measurement": "circulating lymphocytes", "setting": "[1]; whole blood, end of study, PA vs VEH", "value": "no difference between VEH- and PA-treated groups"},
      {"measurement": "total WBCs", "setting": "[1]; whole blood, end of study, across groups", "value": "no change"},
      {"measurement": "circulating monocytes", "setting": "[1]; whole blood, end of study, increase with VEH vs CF, p≤0.05", "value": "rescued"},
      {"measurement": "neutrophil to lymphocyte ratio (NLR)", "setting": "[1]; whole blood, end of study, p≤0.05", "value": "decrease"},
      {"measurement": "circulating neutrophils", "setting": "[1]; whole blood, end of study, vs VEH, p≤0.05", "value": "ameliorate the significant increase"},
      {"measurement": "IC50", "setting": "[2]", "value": "~7", "unit": "µM"}
    ]}
  ]
}
